Laboratory results reported in patent US20110015119A1, “NOVEL SEMI-SYNTHETIC GLYCOPEPTIDES AS ANTIBACTERIAL AGENTS” (LEAD THERAPEUTICS, INC., priority 2009, published 2011).
In brackets after ≈: the same amount, converted by molar mass. Read-outs that look alike come from different tables or passages of the source.

Experiments:
Assay type in all cases: cell-based
[1] = tested on: Streptococcus pyogenes 712; assay: MIC by broth microdilution, SPY 712
Protocol: (§1) Antibacterial activity in vitro is investigated by broth microdilution method in Meuller-Hinton broth as recommended by NCCLS. All strains tested are clinical isolates either sensitive or resistant to natural glycopeptides. MIC values were determined using the CLSI-recommended broth microdilution procedure (Clinical and Laboratory Standards Institute, Methods for Dilution Antimicrobial Susceptibility Tests for Bacteria That Grow Aerobically; Approved Standard-Seventh Edition.). Automated liquid handlers (Multidrop 384, Labsystems, Helsinki, Finland; Biomek 2000 and Multimek 96, Beckman Coulter, Fullerton Calif.) were used to conduct serial dilutions and liquid transfers. The MIC value for vancomycin is given for comparison. The abbreviations for organisms tested are as follow: SA 100—Staphylococcus aureus 100 (ATCC 29213); SA 757—Staphylococcus aureus 757 (MRSA); SA 2012—Staphylococcus aureus 2012 (VISA); SE 835—Staphylococcus epidermidis 835; SE 831—Staphylococcus epidermidis 831 (MRSE); EFc 101—Enterococcus faecalis 101 (ATCC 29212); EFc 848—Enterococcus faecalis 848 (VRE, Van A); EFcm 800—Enterococcus faecium 800; EFcm 752—Enterococcus faecium 752 (VRE, Van A); SPNE 1195—Streptococcus pneumoniae 1195 (ATCC 49619); SPY 712—Streptococcus pyogenes 712.

Enterococcus faecium 800 = assay: MIC by broth microdilution, EFcm 800
Protocol: as §1

[2] = tested on: Staphylococcus aureus 2012 (VISA); assay: MIC by broth microdilution, SA 2012; details: class symbols
Protocol: as §1

[3] = tested on: Staphylococcus epidermidis 831 (MRSE); assay: MIC by broth microdilution, SE 831; details: read-out: MIC SE 831
Protocol: as §1

[4] = tested on: Streptococcus pneumoniae 1195 (ATCC 49619); assay: MIC by broth microdilution, SPNE 1195
Protocol: as §1

[5] = tested on: Enterococcus faecalis 848 (VRE, Van A); assay: MIC by broth microdilution, EFc 848; details: class symbols
Protocol: as §1

[6] = tested on: Staphylococcus aureus 100 (ATCC 29213); assay: MIC by broth microdilution, SA 100
Protocol: as §1

[7] = tested on: Enterococcus faecium 752 (VRE, Van A); assay: MIC by broth microdilution, EFcm 752; details: class symbols
Protocol: as §1

[8] = tested on: Enterococcus faecalis 101 (ATCC 29212); assay: MIC by broth microdilution, EFc 101; details: class symbols
Protocol: as §1

[9] = tested on: Staphylococcus epidermidis 835; assay: MIC by broth microdilution, SE 835
Protocol: as §1

[10] = tested on: Staphylococcus aureus 757 (MRSA); assay: MIC by broth microdilution, SA 757; details: read-out: MIC SA 757
Protocol: as §1

[11] = Streptococcus pyogenes, 712, read-out: MIC S PYO 712
[12] = Enterococcus faecium, 800, read-out: MIC E FCM 800
[13] = Staphylococcus aureus, VISA, read-out: MIC SA 2012, Staphylococcus aureus 2012 (VISA)
[14] = Staphylococcus epidermidis, MRSE
[15] = Streptococcus pneumoniae, ATCC49619, read-out: MIC S PNE 1195
[16] = Enterococcus faecalis, VRE, read-out: MIC E FC 848, Enterococcus faecalis 848 (VRE, Van A)
[17] = Staphylococcus aureus, ATCC29213, read-out: MIC SA 100
[18] = Enterococcus faecium, VRE, read-out: MIC E FCM 752, Enterococcus faecium 752 (VRE, Van A)
[19] = Enterococcus faecalis, ATCC29212, read-out: MIC E FC 101, Enterococcus faecalis 101 (ATCC 29212)
[20] = Staphylococcus epidermidis, 835, read-out: MIC SE 835

Row | Structure (SMILES) | MIC [1, 11] [µg/mL] | MIC (Enterococcus faecium 800; [12]) [µg/mL] | MIC [2, 13] [µg/mL] | MIC [3, 14] [µg/mL] | MIC [4, 15] [µg/mL] | MIC [5, 16] [µg/mL] | MIC [6, 17] [µg/mL] | MIC [7, 18] [µg/mL] | MIC [8, 19] [µg/mL] | MIC [9, 20] [µg/mL] | MIC ([10]; Staphylococcus aureus, MRSA) [µg/mL] | further results
1 | CCCCCOc1ccc(S(=O)(=O)NCCCCNCc2c(O)cc3c(c2O)-c2cc(ccc2O)[C@H]2NC(=O)[C@@H]4NC(=O)[C@H](CC(N)=O)NC(=O)[C@H](NC(=O)[C@@H](CC(C)C)NC)[C@H](O)c5ccc(c(Cl)c5)Oc5cc4cc(c5O[C@@H]4O[C@H](CO)[C@@H](O)[C@H](O)[C@H]4O[C@H]4C[C@](C)(NC(=O)CN)[C@H](O)[C@H](C)O4)Oc4ccc(cc4Cl)[C@@H](O)[C@H](NC2=O)C(=O)N[C@@H]3C(=O)O)cc1 (atropisomer, axis not shown) [Compound 346] |  |  |  |  |  |  |  |  |  |  |  | MIC ([1]; Streptococcus pyogenes 712, class symbols, read-out: MIC S PYO 712): 0.01 to 0.5 µg/mL (≈ 0.00546 to 0.273 µM); MIC (Enterococcus faecium 800; Enterococcus faecium 800, class symbols, read-out: MIC E FCM 800): 0.01 to 0.5 µg/mL (≈ 0.00546 to 0.273 µM); MIC ([2]; Staphylococcus aureus 2012 (VISA), read-out: MIC SA 2012): 0.5 to 1 µg/mL (≈ 0.273 to 0.546 µM); MIC ([3]; Staphylococcus epidermidis 831 (MRSE), class symbols): 0.01 to 0.5 µg/mL (≈ 0.00546 to 0.273 µM); MIC ([4]; ATCC49619, Streptococcus pneumoniae 1195 (ATCC 49619), class symbols, read-out: MIC S PNE 1195): 0.01 to 0.5 µg/mL (≈ 0.00546 to 0.273 µM); MIC ([5]; Enterococcus faecalis 848 (VRE, Van A), read-out: MIC E FC 848): > 16 µg/mL; MIC ([6]; ATCC29213, Staphylococcus aureus 100 (ATCC 29213), class symbols, read-out: MIC SA 100): 0.01 to 0.5 µg/mL (≈ 0.00546 to 0.273 µM); MIC ([7]; Enterococcus faecium 752 (VRE, Van A), read-out: MIC E FCM 752): 8 to 16 µg/mL (≈ 4.36 to 8.73 µM); MIC ([8]; ATCC29212, Enterococcus faecalis 101 (ATCC 29212), read-out: MIC E FC 101): 0.5 to 1 µg/mL (≈ 0.273 to 0.546 µM); MIC ([9]; Staphylococcus epidermidis 835, class symbols, read-out: MIC SE 835): 0.01 to 0.5 µg/mL (≈ 0.00546 to 0.273 µM); MIC ([10]; Staphylococcus aureus 757 (MRSA), class symbols): 0.01 to 0.5 µg/mL (≈ 0.00546 to 0.273 µM)
2 | CCCCCOCCNC(=O)Oc1cc(O)c2c(c1)[C@@H](C(=O)O)NC(=O)[C@H]1NC(=O)[C@H](NC(=O)[C@@H]3NC(=O)[C@H](CC(N)=O)NC(=O)[C@H](NC(=O)[C@@H](CC(C)C)NC)[C@H](O)c4ccc(c(Cl)c4)Oc4cc3cc(c4O[C@@H]3O[C@H](CO)[C@@H](O)[C@H](O)[C@H]3O[C@H]3C[C@](C)(N)[C@H](O)[C@H](C)O3)Oc3ccc(cc3Cl)[C@H]1O)c1ccc(O)c-2c1 (atropisomer, axis not shown) [Compound 348] | 0.5 to 1 (≈ 0.311 to 0.622 µM) | 1 to 2 (≈ 0.622 to 1.24 µM) | 8 to 16 (≈ 4.98 to 9.96 µM) | 4 to 8 (≈ 2.49 to 4.98 µM) | 0.01 to 0.5 (≈ 0.00622 to 0.311 µM) | > 16 | 2 to 4 (≈ 1.24 to 2.49 µM) | > 16 | 2 to 4 (≈ 1.24 to 2.49 µM) | 4 to 8 (≈ 2.49 to 4.98 µM) | 2 to 4 (≈ 1.24 to 2.49 µM) | 
3 | CCCCCCOc1ccc(S(=O)(=O)NCCCCCCNC(=O)Oc2cc(O)c3c(c2)[C@@H](C(=O)O)NC(=O)[C@H]2NC(=O)[C@H](NC(=O)[C@@H]4NC(=O)[C@H](CC(N)=O)NC(=O)[C@H](NC(=O)[C@@H](CC(C)C)NC)[C@H](O)c5ccc(c(Cl)c5)Oc5cc4cc(c5O[C@@H]4O[C@H](CO)[C@@H](O)[C@H](O)[C@H]4O[C@H]4C[C@](C)(N)[C@H](O)[C@H](C)O4)Oc4ccc(cc4Cl)[C@H]2O)c2ccc(O)c-3c2)cc1 (atropisomer, axis not shown) [Compound 349] | 0.01 to 0.5 (≈ 0.00546 to 0.273 µM) | 0.01 to 0.5 (≈ 0.00546 to 0.273 µM) | 0.5 to 1 (≈ 0.273 to 0.546 µM) | 0.01 to 0.5 (≈ 0.00546 to 0.273 µM) | 0.01 to 0.5 (≈ 0.00546 to 0.273 µM) | 4 to 8 (≈ 2.18 to 4.37 µM) | 0.01 to 0.5 (≈ 0.00546 to 0.273 µM) | 0.5 to 1 (≈ 0.273 to 0.546 µM) | 0.01 to 0.5 (≈ 0.00546 to 0.273 µM) | 0.01 to 0.5 (≈ 0.00546 to 0.273 µM) | 0.01 to 0.5 (≈ 0.00546 to 0.273 µM) | 
4 | CCCCCCc1ccc(S(=O)(=O)NCCCCCNC(=O)Oc2cc(O)c3c(c2)[C@@H](C(=O)O)NC(=O)[C@H]2NC(=O)[C@H](NC(=O)[C@@H]4NC(=O)[C@H](CC(N)=O)NC(=O)[C@H](NC(=O)[C@@H](CC(C)C)NC)[C@H](O)c5ccc(c(Cl)c5)Oc5cc4cc(c5O[C@@H]4O[C@H](CO)[C@@H](O)[C@H](O)[C@H]4O[C@H]4C[C@](C)(N)[C@H](O)[C@H](C)O4)Oc4ccc(cc4Cl)[C@H]2O)c2ccc(O)c-3c2)cc1 (atropisomer, axis not shown) [Compound 350] | 0.01 to 0.5 (≈ 0.00555 to 0.278 µM) | 0.01 to 0.5 (≈ 0.00555 to 0.278 µM) | 0.01 to 0.5 (≈ 0.00555 to 0.278 µM) | 0.01 to 0.5 (≈ 0.00555 to 0.278 µM) | 0.01 to 0.5 (≈ 0.00555 to 0.278 µM) | 4 to 8 (≈ 2.22 to 4.44 µM) | 0.01 to 0.5 (≈ 0.00555 to 0.278 µM) | 1 to 2 (≈ 0.555 to 1.11 µM) | 0.01 to 0.5 (≈ 0.00555 to 0.278 µM) | 0.01 to 0.5 (≈ 0.00555 to 0.278 µM) | 0.01 to 0.5 (≈ 0.00555 to 0.278 µM) | 
